Consider one molecule from US12544375B2, “Small molecule therapeutic for parkinson's disease paired with a biomarker of therapeutic activity” (The Board of Trustees of the Leland Stanford Junior …, priority 2019, dated 2026).

SMILES strings stand for the structures.

Series [1] concerns healthy-1 or PD-2 fibroblasts. As to the kind of experiment: Mitochondrial morphology and membrane potential, TMRM staining. It counts as cell-based, human. To be noted: 10 μM for 30 hrs. As for the experimental part: FIG. 8. Related to FIG. 2-4. Miro1 Reducer in Human Cell and Fly Models. (A) Fibroblasts from Healthy-1 and PD-2 were treated, lysed, and blotted as indicated. Band intensities are normalized to those of GAPDH from the same blots and compared to “Healthy-1, no treatment”. n=4 independent experiments. (B) Fibroblasts from PD-2 were treated and immunostained as indicated. The intensity was quantified for each cell across 264-320 cells from 3 independent experiments, compared to “no treatment”. (C) Fibroblasts were treated, immunoprecipitated (IPed) with anti-Miro1, and blotted as indicated. Similar results were observed twice. (D) Similar as in (C), fibroblasts were treated as indicated, and IPed with anti-Miro1. The GTPase activity of the IPed Miro1 protein was measured as described in Method. […] The MitoSox intensity was quantified for each cell across 106-161 cells from 3 coverslips. […] The TMRM intensity was measured for each cell across 48-60 cells from 3 independent experiments, and expressed as a fraction of the mean of “Healthy-1, no treatment”. […] The movement (the intensity of non-yellow) was quantified for each cell as described in (Tsai et al., 2014) across 22-31 cells from 3 transfections. […] (1) Left: The percentage of TH-positive iPSC-derived neurons out of total cells (Dapi-positive) is calculated after immunocytochemistry under 20× as described in FIG. 3. […]

In another series the test system is fibroblasts. Description: Cytotoxicity: mitochondrial matrix and cytosolic proteins in fibroblasts with CCCP. It counts as cell-based, human. To be noted: combined with CCCP treatment for 6 hrs. As for the experimental part:
FIG. 2A-FIG. 2F. Miro1 Reducer Eliminates the Miro1 Defect in PD Fibroblasts. (FIG. 2A) Chemical properties of Miro1 Reducer. (FIG. 2B) Wild-type flies (w^1118) were fed with DMSO alone (0 μM Miro1 Reducer) or Miro1 Reducer in DMSO at 250 μM for 7 days, and lysed and blotted as indicated. The band intensities are normalized to those of Tubulin from the same blots. n=4. (FIG. 2C-FIG. 2E) Fibroblasts were treated, lysed, and blotted as indicated. (FIG. 2C) Band intensities are normalized to those of GAPDH from the same blots and compared to “Healthy-1, no treatment” except otherwise indicated. n=4. (FIG. 2D) Band intensities are normalized to those of ATP5β from the same blots and expressed as a percentage of the mean of “0 μM Miro1 Reducer with CCCP”. Mean±S.E.M is shown. n=3. (FIG. 2E) Band intensities are normalized to those of GAPDH from the same blots and compared to “Healthy-1, no CCCP, no MG132” except otherwise indicated. n=4. (FIG. 2F) Healthy-1 and PD-2 fibroblasts were transfected as indicated, and immunostained with anti-Myc (Miro1, green) and stained with Dapi (blue). The Miro1 intensity is normalized to that of mito-dsRed from the same cell and quantified across 37-62 cells from 5 fields each transfection, 3 independent transfections. Scale bars: 50 μm. For (FIG. 2C-FIG. 2F), both CCCP and Miro1 Reducer were dissolved in DMSO. […]

Regarding `O=C(Nc1ccc(Nc2cc(-n3ccnc3)ncn2)cc1)Nc1cccc(F)c1` [Miro1 Reducer], the “general mitochondrial morphology and ΔΨm (TMRM)” value in series [1] is listed as “did not affect”. Besides, the “concentrations impacting multiple mitochondrial matrix and cytosolic proteins, indicating cytotoxicity” value with fibroblasts was more than 25 µM.
